The values below come from paper PMC5824694, “Evaluation of agonist and antagonist radioligands for somatostatin receptor imaging of breast cancer using positron emission tomography” (EJNMMI Radiopharmacy and Chemistry, 2017).

The structures appear in SMILES notation. Read-outs that look alike come from different tables or passages of the source.

One data set concerns ZR-75-1 tumors. Briefly: biodistribution and PET/CT in ZR-75-1 tumor-bearing NOD scid gamma mice. The note with it: mouse, in vivo, iv; for Kidneys uptake / Tumor uptake: female, NOD scid gamma (NOD.Cg-Prkdc^sci Il2rg^tm1Wjl/SzJ). The text has this:
(§1) All animal studies were done in compliance with the Canadian Council on Animal Care guidelines and were approved by the Animal Care Committee of University of British Columbia (Vancouver, Canada). Immunodeficient female NOD.Cg-Prkdc ^sci Il2rg ^tm1Wjl/SzJ mice (NOD scid gamma) were obtained from an in-house breeding colony at the Animal Resource Centre of the BC Cancer Agency Research Centre and also from Jackson Laboratory. To sustain the growth of the ER-positive ZR-75-1 cell model, animals were administered a 1.7 mg, 60-day slow-release estrogen pellet from Innovative Research of America (Sarasota, FL) subcutaneously in the dorsal space of the neck. 3–5 days post pellet-implant, 10 million ZR-75-1 cells were re-suspended in a mixture of 1:1 PBS and Matrigel (Corning Inc., Corning, NY) and inoculated subcutaneously on the right shoulder. Tumors were grown for 5–6 weeks, until they reached a size of 7–11 mm in diameter.
(§2) Mice were sedated using 2 mL/min of O2 with 2% isoflurane and injected intravenously (i.v.) with 1–2 MBq of ^68Ga-labeled peptide. Mice were allowed to roam freely for 60 min prior to euthanasia by 2 mL/min of O2 with 4% isoflurane followed by CO2 asphyxiation. Blood was promptly collected by cardiac puncture and weighted. Internal organs were harvested, rinsed in PBS, patted dry and weighed. Organ uptake was measured either in a WIZARD 2480 gamma counter (Perkin Elmer) or Cobra II auto-gamma counter (Packard), both calibrated with standards of known ^68Ga activity. Uptake was normalized to the injected dose and to the respective weight of the organ, and expressed as percent injected dose per gram of tissue (%ID/g).
(§3) Tumor-bearing mice were injected i.v. with 8–9 MBq of ^68Ga-labeled peptide. Static PET images were acquired 55 min post-injection for 10 min using an Inveon microPET/CT scanner (Siemens, Erlangen, Germany) as described previously (Lin et al. [2015]). A baseline CT scan was used for localization and attenuation correction. Mice were promptly euthanized after imaging, and biodistribution studies were undertaken as described above.

Experiment in data set [1]: as above
Conditions: female, mouse, in vivo, iv, total radioactivity; for tissue uptake at 1 h: NOD scid gamma (NOD.Cg-Prkdc^sci Il2rg^tm1Wjl/SzJ); for tissue to tissue ratio at 1 h: NOD scid gamma (NOD.Cg-Prkdc scid Il2rg tm1Wjl/SzJ).
Description: as §1, §2, §3

Data set [2] has as its system sstr2. On the set-up: method as in Reubi et al. [2000]. The note with it: ref Reubi et al. [2000]; cited from earlier work.
In the next data set the test system is NET. Conditions: human, in vivo; cited from earlier work.
In data set [3] the test system is sstr2. Also noted: method as in Fani et al. [2012b]. The note with it: autoradiography approach; ref Fani et al. [2012b]; cited from earlier work.
For data set [4], the target named is T1, sstr2 receptors on ZR-75-1 cells (Homo sapiens, UniProt P30874).
T1 construct: we used a human breast cancer cell model with endogenous sstr2 expression (ZR-75-1 cells); host or cells: ZR-75-1 cells
T1 sequence (P30874 whole entry): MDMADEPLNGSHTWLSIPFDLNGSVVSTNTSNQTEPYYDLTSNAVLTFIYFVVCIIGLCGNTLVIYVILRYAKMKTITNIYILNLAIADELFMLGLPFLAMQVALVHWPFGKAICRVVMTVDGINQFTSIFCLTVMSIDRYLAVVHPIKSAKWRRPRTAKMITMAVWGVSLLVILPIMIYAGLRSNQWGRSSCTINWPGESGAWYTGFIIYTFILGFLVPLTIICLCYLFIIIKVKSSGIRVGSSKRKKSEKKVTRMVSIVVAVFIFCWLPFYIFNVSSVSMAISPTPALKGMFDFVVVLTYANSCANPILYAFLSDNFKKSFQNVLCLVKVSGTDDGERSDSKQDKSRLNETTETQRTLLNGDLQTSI
Kind of data set: saturation binding assay on ZR-75-1 cells. The note with it: ZR-75-1 cells in vitro; 1 h at 25 °C; one-site binding model.

On to `C[C@@H](O)[C@H](NC(=O)[C@@H]1CSSC[C@H](NC(=O)[C@@H](Cc2ccccc2)NC(=O)CN2CCN(CC(=O)O)CCN(CC(=O)O)CCN(CC(=O)O)CC2)C(=O)N[C@@H](Cc2ccc(O)cc2)C(=O)N[C@H](Cc2c[nH]c3ccccc23)C(=O)N[C@@H](CCCCN)C(=O)N[C@@H]([C@@H](C)O)C(=O)N1)C(=O)O` [^68Ga-DOTATATE, ^68Ga-DOTA-Tyr^3-octreotate, metal not drawn], for which, in the data set with ZR-75-1 tumors (1 h), the Kidneys uptake is on record as 8.45 %ID/g. Further, in the data set on ZR-75-1 tumors (1 h), the Brain uptake is reported as 0.03 %ID/g. For the same molecule, the tissue uptake at 1 h in data set [1] (Blood uptake) turned out to be 0.35 %ID/g; in data set [1] (Bone uptake) it was 0.25 %ID/g; in data set [1] (Fat uptake), 0.28 %ID/g; in data set [1] (Heart uptake) it was 0.67 %ID/g; in data set [1] (Intestines uptake), 7.35 %ID/g; in data set [1] (Kidneys uptake), 8.5 ± 1.7 %ID/g. The tissue uptake at 1 h in data set [1] (Liver uptake) stood at 1.95 %ID/g; in data set [1] (Lungs uptake), 28.7 %ID/g; in data set [1] (Ovaries uptake), 0.89 %ID/g; in data set [1] (Pancreas uptake), 51.6 %ID/g; in data set [1] (Spleen uptake), 0.84 %ID/g; in data set [1] (Stomach uptake), 8.29 %ID/g. The tissue uptake at 1 h in data set [1] (Uterus uptake) was found to be 0.84 %ID/g.

On to `C[C@@H](O)[C@@H]1NC(=O)[C@H](CCCCN)NC(=O)[C@@H](Cc2c[nH]c3ccccc23)NC(=O)[C@H](Cc2ccc(O)cc2)NC(=O)[C@@H](NC(=O)[C@@H](Cc2ccccc2)NC(=O)CN2CCN(CC(=O)O)CCN(CC(=O)O)CCN(CC(=O)O)CC2)CSSC[C@@H](C(=O)N[C@H](CO)[C@@H](C)O)NC1=O` [^natGa-DOTATOC, metal not drawn], for which the IC50 in the data set with sstr2 [2] was […].

On to `C[C@@H](O)[C@@H]1NC(=O)[C@H](CCCCN)NC(=O)[C@@H](Cc2ccc(NC(N)=O)cc2)NC(=O)[C@H](Cc2ccc(NC(=O)[C@@H]3CC(=O)NC(=O)N3)cc2)NC(=O)[C@H](NC(=O)[C@H](Cc2ccc(Cl)cc2)NC(=O)CCC(C(=O)O)N2CCN(CC(=O)O)CCN(CC(=O)O)CC2)CSSC[C@@H](C(=O)N[C@H](Cc2ccc(O)cc2)C(N)=O)NC1=O` (stereo partly drawn) [^68Ga-NODAGA-JR11, metal not drawn], for which the “higher SUVmax uptake compared to ^68Ga-DOTATOC” value in the data set on NET is on record as ~ 15%. In the data set with ZR-75-1 tumors (1 h), the Kidneys uptake is recorded as 14.12 %ID/g. The Tumor uptake in the data set with ZR-75-1 tumors (1 h) amounted to 12.21 %ID/g. Moreover, the “Tumor to Background Ratio: Blood (tumor-to-blood)” value in the data set on ZR-75-1 tumors came to 15.6 ± 2.2. Further, the “Tumor to Background Ratio: Muscle (tumor-to-muscle)” value with ZR-75-1 tumors was determined as 45.2 ± 11.6. Further, the tissue to tissue ratio at 1 h in data set [1] (Tumor to Background Ratio: Blood (tumor-to-blood)) worked out at 15.6; in data set [1] (Tumor to Background Ratio: Kidneys) it was 0.87; in data set [1] (Tumor to Background Ratio: Muscle (tumor-to-muscle)), 45.1. The tissue uptake at 1 h in data set [1] (Adrenals uptake) was 2 %ID/g; in data set [1] (Blood uptake) it was 0.8 %ID/g; in data set [1] (Bone uptake) it was 0.26 %ID/g; in data set [1] (Brain uptake) it was 0.05 %ID/g; in data set [1] (Fat uptake), 0.23 %ID/g; in data set [1] (Heart uptake), 0.46 %ID/g. For the same molecule, the tissue uptake at 1 h came to 0.9 %ID/g in data set [1] (Intestines uptake); 14.1 ± 1.7 %ID/g in data set [1] (Kidneys uptake); 0.99 %ID/g in data set [1] (Liver uptake); 4.72 %ID/g in data set [1] (Lungs uptake); 0.28 %ID/g in data set [1] (Muscle uptake); 0.67 %ID/g in data set [1] (Ovaries uptake). The tissue uptake at 1 h was 9.29 %ID/g in data set [1] (Pancreas uptake); 0.39 %ID/g in data set [1] (Spleen uptake); 1.36 %ID/g in data set [1] (Stomach uptake); 12.2 ± 0.8 %ID/g in data set [1] (Tumor uptake); 0.86 %ID/g in data set [1] (Uterus uptake).

With `C[C@@H](O)[C@@H]1NC(=O)[C@H](CCCCN)NC(=O)[C@@H](Cc2c[nH]c3ccccc23)NC(=O)[C@H](Cc2ccc(O)cc2)NC(=O)[C@@H](NC(=O)[C@@H](Cc2ccccc2)NC(=O)CN2CCN(CC(=O)O)CCN(CC(=O)O)CCN(CC(=O)O)CC2)CSSC[C@@H](C(=O)N[C@H](CO)[C@@H](C)O)NC1=O` [^68Ga-DOTATOC, ^68Ga-DOTA-Tyr^3-octreotide, metal not drawn], the Kidneys uptake in the data set with ZR-75-1 tumors (1 h) is 9.27 %ID/g. In addition, the Tumor uptake in the data set with ZR-75-1 tumors (1 h) is listed as 18.44 %ID/g. For the same molecule, the tissue uptake at 1 h in data set [1] (Adrenals uptake) turned out to be 9.52 %ID/g; in data set [1] (Blood uptake), 0.45 %ID/g; in data set [1] (Bone uptake), 0.2 %ID/g; in data set [1] (Brain uptake), 0.03 %ID/g; in data set [1] (Fat uptake), 0.18 %ID/g; in data set [1] (Heart uptake) it was 0.3 %ID/g. Moreover, the tissue uptake at 1 h turned out to be 2.39 %ID/g in data set [1] (Intestines uptake); 9.3 ± 1.7 %ID/g in data set [1] (Kidneys uptake); 0.71 %ID/g in data set [1] (Liver uptake); 22.9 %ID/g in data set [1] (Lungs uptake); 0.11 %ID/g in data set [1] (Muscle uptake); 0.51 %ID/g in data set [1] (Ovaries uptake). In addition, the tissue uptake at 1 h in data set [1] (Pancreas uptake) came to 11 %ID/g; in data set [1] (Spleen uptake), 0.46 %ID/g; in data set [1] (Stomach uptake) it was 2.75 %ID/g; in data set [1] (Tumor uptake), 18.4 ± 2.9 %ID/g; in data set [1] (Uterus uptake) it was 0.54 %ID/g.

In the case of `C[C@@H](O)[C@H](NC(=O)[C@@H]1CSSC[C@H](NC(=O)[C@@H](Cc2ccccc2)NC(=O)CN2CCN(CC(=O)O)CCN(CC(=O)O)CCN(CC(=O)O)CC2)C(=O)N[C@@H](Cc2ccc(O)cc2)C(=O)N[C@H](Cc2c[nH]c3ccccc23)C(=O)N[C@@H](CCCCN)C(=O)N[C@@H]([C@@H](C)O)C(=O)N1)C(=O)O` [^natGa-DOTATATE, metal not drawn], the IC50 with sstr2 [2] is […].

`C[C@@H](O)[C@@H]1NC(=O)[C@H](CCCCN)NC(=O)[C@@H](Cc2ccc(NC(N)=O)cc2)NC(=O)[C@H](Cc2ccc(NC(=O)[C@@H]3CC(=O)NC(=O)N3)cc2)NC(=O)[C@H](NC(=O)[C@H](Cc2ccc(Cl)cc2)NC(=O)CCC(C(=O)O)N2CCN(CC(=O)O)CCN(CC(=O)O)CC2)CSSC[C@@H](C(=O)N[C@H](Cc2ccc(O)cc2)C(N)=O)NC1=O` (stereo partly drawn) [^natGa-NODAGA-JR11, metal not drawn]: in the data set on sstr2 [3], the IC50 is 1.2 ± 0.2 nM.

`C[C@@H](O)[C@@H]1NC(=O)[C@H](CCCCN)NC(=O)[C@@H](Cc2ccc(NC(N)=O)cc2)NC(=O)[C@H](Cc2ccc(NC(=O)[C@@H]3CC(=O)NC(=O)N3)cc2)NC(=O)[C@H](NC(=O)[C@H](Cc2ccc(Cl)cc2)NC(=O)CCC(C(=O)O)N2CCN(CC(=O)O)CCN(CC(=O)O)CC2)CSSC[C@@H](C(=O)N[C@H](Cc2ccc(O)cc2)C(N)=O)NC1=O` (stereo partly drawn) [^67/natGa-NODAGA-JR11, metal not drawn]: in data set [4], the “Bmax (number of binding sites)” value is 4.39 ± 0.32 × 10^4 sites/cell.

One may read the tissue uptake as the percentage of the injected dose found per gram of tissue. As usually defined, the IC50 is the concentration that inhibits the measured activity by half.
